Here are results for one compound from US12685751B2, “Methods for gene modification of hematopoietic cells” (Centro de Investigaciones Energéticas, Medioambientales y …, priority 2018, dated 2026).

The structures appear in SMILES notation.

Assay [1] has as its system hematopoietic cells. Description: VCN determination after 14 days in liquid culture of cells transduced with lentiviral vector. The note with it: 4 μg/mL protamine sulfate in media, 14 days liquid culture. The format is cell-based. The protocol: “Vector copy number” or “VCN” refers to the number of copies of vector in a sample divided by the number of cells. Generally the number of copies of vector is determined by quantitative polymerase chain reaction (qPCR) using a probe against the Psi sequence of the integrated provirus, and the number of cells is determined by qPCR using a probe against a human housekeeping gene for which there will be two copies per cell (one per chromosome).
An illustrative protocol for transduction of hematopoietic cells with lentiviral vectors as performed in the examples that follow is provided in FIG. 1, although in various experiments described in the examples, the transduction media included no TE, a single TE, or various combinations of TEs. Pre-stimulation included culturing the cells on plates coated with 2 ug/cm^2 RetroNectin™ (RN). […]
(§1) In another experiment, cells were transduced with either 1×10^7 TU/mL or 1×10^8 TU/mL of lentiviral vector in liquid culture in the presence of PGE2, and assayed for VCN determination after 14 days in liquid culture (FIG. 2B). […] A colony forming units (CFUs) assay was performed with transduced cells (FIG. 3A, CFCs=colony-forming cells), and VCN and percent (%) transduction were analyzed in single colonies (FIGS. 3B and 3C). […]

The next assay deals with CD34+ cells. The note with it: ex vivo culture of CD34+ cells; Heffner et al. 2018; cited from earlier work.
Assay [2] relates to hematopoietic cells. Briefly: CFC/CFU assay: percent transduction analysed in single colonies. The format is cell-based. As to the method:
“Transduction efficiency” refers to the percentage of cells transduced with at least one provirus copy. For example if 1×10^6 cells are exposed to a virus and 0.5×10^6 cells are determined to have a least one copy of a virus in their genome, then the transduction efficiency is 50%. An illustrative method for determining transduction efficiency is flow cytometry.
As used herein, “CFC” refers to colony forming cells. The colony forming cell (CFC) assay is used to study the proliferation and differentiation pattern of hematopoietic progenitors by their ability to form colonies in a semisolid medium. The number and the morphology of the colonies formed by a fixed number of input cells provide preliminary information about the ability of progenitors to differentiate and proliferate. Exemplary assays are provided in Sarma et al. Colony forming cell (CFC) assay for human hematopoietic cells. J Vis Exp. 2010 Dec. 18; (46). […]
as §1

Consider `CCCCC(C)(C)[C@H](O)/C=C/[C@H]1[C@H](O)CC(=O)[C@@H]1C/C=C\CCCC(=O)O`, for which the “transduction efficiency as determined by VCN/cell” value in the assay with hematopoietic cells [1] (1×10^7 or 1×10^8 TU/mL lentiviral vector, FIG. 2B) is “increased transduction efficiency”. Moreover, the “transduction efficiency as measured by vector copy numbers/cell” value in the assay with hematopoietic cells [1] (PGE2 10, 30 or 50 μg/mL, 2.5×10^7 or 5×10^7 TU/mL VSVG-pseudotyped GFP LV, FIG. 2A) is “increase transduction efficiency”. For the same compound, in the assay on CD34+ cells, the “level of lentiviral transgene delivery” value is on record as “increase the level of lentiviral transgene delivery”. Also, the “percent (%) transduction, cells transduced” value in the assay with hematopoietic cells [2] (highest tested concentration of PGE2, single colonies, FIG. 3C) is listed as “up to 75%”; with hematopoietic cells [2] (highest tested concentration, Example 2 (poloxamer F108 / LentiBOOST), FIG. 5C), “up to 75%”.
